# Laboratory results reported in ChEMBL document CHEMBL1201862, “PubChem BioAssay data set” (2004).
# The source made the active and inactive calls.
# Legend:
# [1] = target: T1, G-protein coupled receptor 35 (Homo sapiens, UniProt Q9HC97); assay: GPR35 antagonists blocking zaprinast-driven arrestin recruitment, primary screen, imaging, U2OS, beta-arrestin-GFP, zaprinast agonist (AID 2058); assay type: functional;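 also: antagonist potency meaning inhibition of agonist-induced arrestin redistribution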
# T1 sequence (Q9HC97 whole entry): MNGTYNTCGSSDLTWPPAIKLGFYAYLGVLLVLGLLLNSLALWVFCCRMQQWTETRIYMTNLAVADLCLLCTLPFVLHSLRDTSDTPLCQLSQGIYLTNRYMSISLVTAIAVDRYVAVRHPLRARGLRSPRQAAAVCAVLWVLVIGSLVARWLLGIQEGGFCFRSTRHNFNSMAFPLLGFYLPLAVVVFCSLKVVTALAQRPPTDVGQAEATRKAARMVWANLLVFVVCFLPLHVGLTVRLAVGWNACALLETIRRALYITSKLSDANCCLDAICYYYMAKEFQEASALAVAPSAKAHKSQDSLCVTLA
# [2] = target: T1, G-protein coupled receptor 35; assay: SAR Analysis for the identification of Selective Antagonists of ERK1/2 Activity in GPR35-Overexpressing U2OS Cells. [Related pubchem assays: 2079, 2058 ]; assay type: functional, cell-based
# Caspase-3 = target: T2, Caspase-3 (Homo sapiens, UniProt P42574); assay type: functional;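 also: Dose-response selectivity test against caspase-3 for candidate inhibitors of sentrin-specific proteases (SENPs)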
# T2 sequence (P42574 whole entry): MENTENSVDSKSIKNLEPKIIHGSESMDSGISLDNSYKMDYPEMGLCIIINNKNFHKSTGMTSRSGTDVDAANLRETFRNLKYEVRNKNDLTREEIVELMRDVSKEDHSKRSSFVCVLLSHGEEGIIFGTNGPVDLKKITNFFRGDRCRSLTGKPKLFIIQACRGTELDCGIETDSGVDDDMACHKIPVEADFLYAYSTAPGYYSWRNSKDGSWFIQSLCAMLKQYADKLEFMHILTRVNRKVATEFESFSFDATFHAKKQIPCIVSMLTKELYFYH
# [3] = target: T3, Sentrin-specific protease 7 (Homo sapiens, UniProt Q9BQF6); assay type: functional;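 also: Luminescence-based dose-response confirmation of ultra-high-throughput screening hits, measuring inhibition of SENP7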
# T3 sequence (Q9BQF6 whole entry): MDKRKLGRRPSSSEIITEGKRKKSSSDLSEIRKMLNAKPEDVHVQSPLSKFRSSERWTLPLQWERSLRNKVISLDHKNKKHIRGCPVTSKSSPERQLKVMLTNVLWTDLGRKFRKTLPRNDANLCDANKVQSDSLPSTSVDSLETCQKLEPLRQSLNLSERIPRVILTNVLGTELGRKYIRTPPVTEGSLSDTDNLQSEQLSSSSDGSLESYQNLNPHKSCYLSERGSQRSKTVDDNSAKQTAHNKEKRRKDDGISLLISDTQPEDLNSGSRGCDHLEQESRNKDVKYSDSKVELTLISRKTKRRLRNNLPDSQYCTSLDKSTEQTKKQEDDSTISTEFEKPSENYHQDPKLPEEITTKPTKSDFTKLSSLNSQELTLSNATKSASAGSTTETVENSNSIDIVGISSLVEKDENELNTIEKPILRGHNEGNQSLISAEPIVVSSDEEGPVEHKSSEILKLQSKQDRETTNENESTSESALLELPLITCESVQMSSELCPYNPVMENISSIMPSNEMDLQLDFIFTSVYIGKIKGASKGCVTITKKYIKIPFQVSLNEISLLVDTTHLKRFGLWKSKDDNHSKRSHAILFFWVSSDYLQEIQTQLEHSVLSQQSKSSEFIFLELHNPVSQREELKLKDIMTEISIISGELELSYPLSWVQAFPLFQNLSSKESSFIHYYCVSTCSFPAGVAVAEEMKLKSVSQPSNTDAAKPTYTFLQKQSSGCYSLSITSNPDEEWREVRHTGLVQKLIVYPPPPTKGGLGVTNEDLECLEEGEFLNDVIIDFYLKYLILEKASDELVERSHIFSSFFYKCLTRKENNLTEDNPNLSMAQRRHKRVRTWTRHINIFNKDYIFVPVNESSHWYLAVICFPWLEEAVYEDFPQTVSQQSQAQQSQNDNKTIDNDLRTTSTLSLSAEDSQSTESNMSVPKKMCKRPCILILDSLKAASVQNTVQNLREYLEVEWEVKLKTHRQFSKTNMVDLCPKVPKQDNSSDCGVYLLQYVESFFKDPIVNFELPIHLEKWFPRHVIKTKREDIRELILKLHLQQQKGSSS
# [4] = target: T4, Sentrin-specific protease 6 (Homo sapiens, UniProt Q9GZR1); assay type: functional;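 also: Luminescence-based dose-response confirmatory assay of SENP6 inhibition, following up an ultra-high-throughput screen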
# T4 sequence (Q9GZR1 whole entry): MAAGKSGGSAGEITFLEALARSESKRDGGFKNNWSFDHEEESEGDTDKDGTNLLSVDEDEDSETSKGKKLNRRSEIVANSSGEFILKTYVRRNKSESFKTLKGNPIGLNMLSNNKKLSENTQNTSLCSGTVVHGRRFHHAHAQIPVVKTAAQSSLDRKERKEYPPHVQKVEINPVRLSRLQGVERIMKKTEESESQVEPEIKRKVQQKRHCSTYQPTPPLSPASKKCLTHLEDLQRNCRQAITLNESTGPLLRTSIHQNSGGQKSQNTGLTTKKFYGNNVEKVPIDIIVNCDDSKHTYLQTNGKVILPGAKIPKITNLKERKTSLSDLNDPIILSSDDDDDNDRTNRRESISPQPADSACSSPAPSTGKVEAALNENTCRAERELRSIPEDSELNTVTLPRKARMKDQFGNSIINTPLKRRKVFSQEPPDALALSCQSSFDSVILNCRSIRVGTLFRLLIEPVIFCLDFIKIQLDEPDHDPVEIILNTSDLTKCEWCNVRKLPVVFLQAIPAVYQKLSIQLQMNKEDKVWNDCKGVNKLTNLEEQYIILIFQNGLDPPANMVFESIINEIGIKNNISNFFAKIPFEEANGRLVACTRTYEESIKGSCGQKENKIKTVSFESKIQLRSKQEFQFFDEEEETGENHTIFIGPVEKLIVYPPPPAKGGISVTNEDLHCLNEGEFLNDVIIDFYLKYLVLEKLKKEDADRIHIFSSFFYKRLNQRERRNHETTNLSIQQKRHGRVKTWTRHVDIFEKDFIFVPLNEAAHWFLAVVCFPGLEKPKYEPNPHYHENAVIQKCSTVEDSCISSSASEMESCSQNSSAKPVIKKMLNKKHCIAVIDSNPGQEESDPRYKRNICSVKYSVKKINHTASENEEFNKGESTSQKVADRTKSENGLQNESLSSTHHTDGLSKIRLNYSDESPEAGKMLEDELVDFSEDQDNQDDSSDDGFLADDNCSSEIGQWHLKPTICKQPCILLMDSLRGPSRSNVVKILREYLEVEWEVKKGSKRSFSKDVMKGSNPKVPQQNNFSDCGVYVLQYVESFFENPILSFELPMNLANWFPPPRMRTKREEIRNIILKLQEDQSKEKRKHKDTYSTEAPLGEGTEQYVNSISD
# [5] = target: T5, Sentrin-specific protease 8 (Homo sapiens, UniProt Q96LD8); assay type: functional;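 also: luminescence read-out of SENP8 inhibition, dose-response confirmation following an ultra-high-throughput screen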
# T5 sequence (Q96LD8 whole entry): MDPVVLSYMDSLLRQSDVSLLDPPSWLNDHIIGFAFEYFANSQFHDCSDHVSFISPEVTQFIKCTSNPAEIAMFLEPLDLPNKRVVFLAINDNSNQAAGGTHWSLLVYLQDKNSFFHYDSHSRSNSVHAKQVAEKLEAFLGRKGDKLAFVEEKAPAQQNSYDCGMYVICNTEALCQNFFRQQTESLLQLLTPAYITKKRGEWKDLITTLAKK
# [6] = target: G-protein coupled receptor 55 (Homo sapiens, UniProt Q9Y2T6); assay: GPR55 antagonists, SAR follow-up, counter-screen for GPR35 antagonist project, imaging, image-based (AID 2397); assay type: functional
# Sequence of G-protein coupled receptor 55 (Q9Y2T6 whole entry): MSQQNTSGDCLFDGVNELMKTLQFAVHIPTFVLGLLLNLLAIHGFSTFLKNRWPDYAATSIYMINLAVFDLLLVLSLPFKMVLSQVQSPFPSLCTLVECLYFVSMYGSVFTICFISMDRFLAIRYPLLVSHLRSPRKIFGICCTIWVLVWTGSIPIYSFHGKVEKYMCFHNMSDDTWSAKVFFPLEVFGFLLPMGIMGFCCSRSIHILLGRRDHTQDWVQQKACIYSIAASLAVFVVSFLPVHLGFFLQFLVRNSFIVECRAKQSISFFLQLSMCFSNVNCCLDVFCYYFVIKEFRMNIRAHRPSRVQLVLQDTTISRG
# [7] = NIH-3T3 fibroblast cytotoxicity, dose response, cytotoxicity control, cell-based, fluorescence, Alamar Blue, secondary assay (AID 2327); assay type: functional;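 also: NIH-3T3 mouse fibroblasts cultured with fluconazole at 8 µg/mL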
# [8] = insulin promoter down-regulators in MIN6 cells, imaging, high-content screening, mouse beta cells (AID 1628); assay type: functional
# [9] = cytotoxicity in MIN6 insulinoma cells, dose response, cytotoxicity control, cell-based, mouse insulinoma (AID 2122); assay type: functional;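 also: confirmatory high-throughput counterscreen run to flag cytotoxic compounds; mouse MIN-6 beta cells carrying an insulin promoter eGFP reporter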
# [10] = C. albicans growth with fluconazole, confirmation, fluorescence, retest (AID 2467); assay type: functional, cell-based
# [11] = inhibitors of intracellular T. cruzi replication, confirmation, NIH3T3 host cells, beta-gal luminescence (AID 2044); assay type: functional, cell-based;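 also: intracellular parasites grown in NIH/3T3 mouse fibroblasts as host cells; luminescent beta-galactosidase reporter signal from transgenic T. cruzi replicating inside host cells; inhibitors lower the luminescence signal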
# [12] = cytotoxicity toward NIH3T3 fibroblasts, dose response, counter-screen, cell-based, ATP luminescence, mouse fibroblasts (AID 2010); assay type: functional;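 also: cells exposed to compound for about 90 hours before reading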
# [13] = microbe, parasite or virus in culture; assay type: functional; settings: Mycobacterium tuberculosis
# [14] = target: FAD-linked sulfhydryl oxidase ALR (Homo sapiens, UniProt P55789); assay: inhibitors of human ALR sulfhydryl oxidase, dose response, biochemical, H2O2 detection, luminescence, cherry-pick (AID 493248)
# Sequence of FAD-linked sulfhydryl oxidase ALR (P55789 whole entry): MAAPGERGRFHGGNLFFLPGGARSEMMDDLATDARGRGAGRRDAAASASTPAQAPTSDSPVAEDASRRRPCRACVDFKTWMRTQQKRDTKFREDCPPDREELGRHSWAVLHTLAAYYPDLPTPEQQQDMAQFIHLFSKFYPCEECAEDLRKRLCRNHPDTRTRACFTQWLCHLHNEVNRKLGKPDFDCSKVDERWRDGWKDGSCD
# [15] = target: 26S proteasome non-ATPase regulatory subunit 14 (Homo sapiens, UniProt O00487); assay: inhibition of proteasome subunit RPN11 – biochemical, fluorescence polarization, uHTS hits, confirmation (AID 602368); assay type: functional
# Sequence of 26S proteasome non-ATPase regulatory subunit 14 (O00487 whole entry): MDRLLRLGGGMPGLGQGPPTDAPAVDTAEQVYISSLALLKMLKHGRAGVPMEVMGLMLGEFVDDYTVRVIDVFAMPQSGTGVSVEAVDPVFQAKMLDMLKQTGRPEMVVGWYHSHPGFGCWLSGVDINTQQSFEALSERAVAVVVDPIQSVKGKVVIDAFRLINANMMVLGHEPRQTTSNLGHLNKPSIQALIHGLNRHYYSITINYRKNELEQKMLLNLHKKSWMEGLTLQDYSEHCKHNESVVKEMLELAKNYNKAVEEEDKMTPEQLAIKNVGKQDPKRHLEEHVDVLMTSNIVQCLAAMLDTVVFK
# [16] = target: 72 kDa type IV collagenase (Homo sapiens, UniProt P08253); assay: Dose Response validation of uHTS RPN11 inhibitor hits using a MMP-2 Fluorescence assay.; assay type: functional
# Sequence of 72 kDa type IV collagenase (P08253 whole entry): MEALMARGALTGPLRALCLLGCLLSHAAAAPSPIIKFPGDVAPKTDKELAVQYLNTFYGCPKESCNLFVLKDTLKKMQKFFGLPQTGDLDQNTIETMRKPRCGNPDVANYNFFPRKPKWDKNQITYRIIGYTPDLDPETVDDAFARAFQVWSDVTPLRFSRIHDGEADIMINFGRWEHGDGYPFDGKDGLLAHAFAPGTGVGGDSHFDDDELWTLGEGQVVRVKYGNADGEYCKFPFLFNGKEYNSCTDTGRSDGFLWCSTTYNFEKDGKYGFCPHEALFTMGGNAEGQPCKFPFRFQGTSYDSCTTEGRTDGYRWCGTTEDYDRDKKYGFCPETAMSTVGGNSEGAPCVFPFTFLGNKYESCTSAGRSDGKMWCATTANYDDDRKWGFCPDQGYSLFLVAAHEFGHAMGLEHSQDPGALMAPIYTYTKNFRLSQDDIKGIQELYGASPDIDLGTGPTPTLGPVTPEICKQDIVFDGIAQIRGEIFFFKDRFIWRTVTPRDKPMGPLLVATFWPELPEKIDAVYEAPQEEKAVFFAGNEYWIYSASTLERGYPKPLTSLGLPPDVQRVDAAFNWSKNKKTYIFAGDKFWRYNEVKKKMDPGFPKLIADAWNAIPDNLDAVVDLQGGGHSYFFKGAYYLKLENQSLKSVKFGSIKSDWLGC
# Prothrombin = Prothrombin (Bos taurus, UniProt P00735); assay: thrombin inhibition, dose response, biochemical, fluorescence polarization, uHTS hits (AID 602369); assay type: functional
# Cytochrome P450 3A4 = Cytochrome P450 3A4 (Homo sapiens, UniProt P08684); settings: Potency;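 also: confirmatory qHTS run detecting inhibitors and substrates of CYP3A4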
# Sequence of Cytochrome P450 3A4 (P08684 whole entry): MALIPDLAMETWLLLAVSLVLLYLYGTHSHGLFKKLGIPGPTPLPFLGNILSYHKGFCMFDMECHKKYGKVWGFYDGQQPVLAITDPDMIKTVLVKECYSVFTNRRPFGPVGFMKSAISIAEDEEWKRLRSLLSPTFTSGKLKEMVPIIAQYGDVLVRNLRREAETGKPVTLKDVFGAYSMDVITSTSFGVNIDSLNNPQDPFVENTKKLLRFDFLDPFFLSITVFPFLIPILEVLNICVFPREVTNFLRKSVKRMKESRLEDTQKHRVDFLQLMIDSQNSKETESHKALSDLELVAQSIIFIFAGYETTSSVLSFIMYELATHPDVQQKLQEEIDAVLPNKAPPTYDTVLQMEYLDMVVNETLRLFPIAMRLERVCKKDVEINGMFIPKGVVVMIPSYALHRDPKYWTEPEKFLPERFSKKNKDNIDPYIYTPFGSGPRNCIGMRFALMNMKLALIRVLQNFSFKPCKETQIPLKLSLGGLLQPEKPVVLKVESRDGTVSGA
# [17] = target: Voltage-gated inwardly rectifying potassium channel KCNH2 (Homo sapiens, UniProt Q12809); settings: Potency;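 also: confirmatory quantitative high-throughput screen measuring inhibition of hERG channel activity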
# Sequence of Voltage-gated inwardly rectifying potassium channel KCNH2 (Q12809 whole entry): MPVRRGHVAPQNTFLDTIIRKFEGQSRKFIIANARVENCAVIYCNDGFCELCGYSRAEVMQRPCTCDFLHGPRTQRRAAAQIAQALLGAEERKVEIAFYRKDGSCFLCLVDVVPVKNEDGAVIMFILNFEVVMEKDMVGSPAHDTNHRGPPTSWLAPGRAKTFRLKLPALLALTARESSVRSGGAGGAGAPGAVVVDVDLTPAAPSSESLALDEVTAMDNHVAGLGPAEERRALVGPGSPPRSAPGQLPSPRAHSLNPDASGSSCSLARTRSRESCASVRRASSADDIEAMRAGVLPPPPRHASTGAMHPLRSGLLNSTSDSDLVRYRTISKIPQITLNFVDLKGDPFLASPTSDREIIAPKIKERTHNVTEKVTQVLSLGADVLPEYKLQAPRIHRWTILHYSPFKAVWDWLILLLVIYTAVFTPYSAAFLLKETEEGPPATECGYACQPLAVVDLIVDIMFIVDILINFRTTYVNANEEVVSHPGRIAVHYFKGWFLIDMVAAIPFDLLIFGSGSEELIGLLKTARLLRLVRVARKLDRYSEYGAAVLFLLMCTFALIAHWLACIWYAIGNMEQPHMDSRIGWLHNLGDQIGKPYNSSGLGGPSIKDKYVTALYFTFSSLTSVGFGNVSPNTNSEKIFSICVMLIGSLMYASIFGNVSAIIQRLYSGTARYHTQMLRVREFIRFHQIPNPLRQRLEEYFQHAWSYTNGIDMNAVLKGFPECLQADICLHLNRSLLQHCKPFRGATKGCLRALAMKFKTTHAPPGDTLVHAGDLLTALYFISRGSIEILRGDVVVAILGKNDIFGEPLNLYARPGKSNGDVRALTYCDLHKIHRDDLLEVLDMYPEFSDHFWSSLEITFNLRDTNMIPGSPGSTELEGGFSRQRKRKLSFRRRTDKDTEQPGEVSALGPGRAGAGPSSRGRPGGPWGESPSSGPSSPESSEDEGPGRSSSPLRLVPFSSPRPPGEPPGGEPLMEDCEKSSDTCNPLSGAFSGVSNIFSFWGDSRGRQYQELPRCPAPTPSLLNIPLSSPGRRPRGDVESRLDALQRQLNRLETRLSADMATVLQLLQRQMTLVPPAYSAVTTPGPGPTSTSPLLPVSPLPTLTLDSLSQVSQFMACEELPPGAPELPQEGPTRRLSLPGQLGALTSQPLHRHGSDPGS
# [18] = target: Delta-type opioid receptor (Homo sapiens, UniProt P41143); assay: Counterscreen for agonists of heterodimerization of the mu 1 (OPRM1) and delta 1 (OPRD1) opioid receptors: Luminescence-based cell-based high throughput dose response assay to identify agonists of OPRD1 homodimerization. [Related pubchem assays (depositor defined):AID504326, AID504355, AID504692, AID504904, AID504905]; assay type: functional
# Sequence of Delta-type opioid receptor (P41143 whole entry): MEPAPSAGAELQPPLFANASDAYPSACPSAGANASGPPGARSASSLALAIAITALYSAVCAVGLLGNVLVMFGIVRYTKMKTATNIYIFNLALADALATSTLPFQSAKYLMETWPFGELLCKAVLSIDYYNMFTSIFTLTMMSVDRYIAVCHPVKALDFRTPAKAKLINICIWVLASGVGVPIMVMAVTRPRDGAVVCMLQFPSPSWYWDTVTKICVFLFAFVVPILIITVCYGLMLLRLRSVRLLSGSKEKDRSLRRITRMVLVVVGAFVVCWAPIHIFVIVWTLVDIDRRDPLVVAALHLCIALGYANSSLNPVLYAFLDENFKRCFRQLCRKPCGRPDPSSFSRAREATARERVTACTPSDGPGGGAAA
# Mu-type opioid receptor = Mu-type opioid receptor (Homo sapiens, UniProt P35372); assay: Counterscreen for agonists of heterodimerization of the mu 1 (OPRM1) and delta 1 (OPRD1) opioid receptors: Luminescence-based cell-based high throughput dose response assay to identify agonists of OPRM1 homodimerization.; assay type: functional;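 also: U2OS cells expressing OPRM1 and beta-arrestin as split beta-galactosidase partners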
# Sequence of Mu-type opioid receptor (P35372 whole entry): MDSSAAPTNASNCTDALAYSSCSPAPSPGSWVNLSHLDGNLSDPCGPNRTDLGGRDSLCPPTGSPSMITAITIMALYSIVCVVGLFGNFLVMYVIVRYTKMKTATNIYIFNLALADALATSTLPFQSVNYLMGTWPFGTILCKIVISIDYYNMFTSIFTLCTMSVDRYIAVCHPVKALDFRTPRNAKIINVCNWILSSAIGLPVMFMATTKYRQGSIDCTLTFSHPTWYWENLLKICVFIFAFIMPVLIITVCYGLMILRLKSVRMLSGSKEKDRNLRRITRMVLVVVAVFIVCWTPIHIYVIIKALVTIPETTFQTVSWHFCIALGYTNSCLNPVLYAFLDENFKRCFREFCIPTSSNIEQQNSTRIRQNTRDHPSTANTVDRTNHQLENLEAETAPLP
# [19] = target: 5-hydroxytryptamine receptor 5A (Homo sapiens, UniProt P47898); assay: Counterscreen for agonists of OPRM1-OPRD1 heterodimerization: luminescence-based cell-based high throughput dose response assay to identify agonists of 5-hydroxytryptamine (serotonin) 5A receptor (HTR5A). [Related pubchem assays (depositor defined):AID504326, AID504355, AID504692, AID504904, AID504905]; assay type: functional
# Sequence of 5-hydroxytryptamine receptor 5A (P47898 whole entry, the tested form may be a part): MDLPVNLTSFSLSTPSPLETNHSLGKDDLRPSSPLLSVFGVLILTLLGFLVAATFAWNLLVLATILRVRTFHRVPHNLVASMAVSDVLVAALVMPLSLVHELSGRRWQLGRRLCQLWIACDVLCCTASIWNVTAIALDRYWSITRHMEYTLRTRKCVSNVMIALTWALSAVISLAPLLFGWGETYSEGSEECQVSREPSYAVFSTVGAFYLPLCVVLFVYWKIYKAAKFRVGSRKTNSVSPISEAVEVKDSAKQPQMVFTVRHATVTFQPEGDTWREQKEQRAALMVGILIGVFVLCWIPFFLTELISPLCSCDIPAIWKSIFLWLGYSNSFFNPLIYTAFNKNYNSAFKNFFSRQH
# [20] = target: Carboxy-terminal domain RNA polymerase II polypeptide A small phosphatase 1 (Homo sapiens, UniProt Q9GZU7); assay: inhibitors of CTDSP1, concentration-response testing, biochemical assay, absorbance-based, actives from ultra-high-throughput screening (AID 540297); assay type: functional
# Sequence of Carboxy-terminal domain RNA polymerase II polypeptide A small phosphatase 1 (Q9GZU7 whole entry, the tested form may be a part): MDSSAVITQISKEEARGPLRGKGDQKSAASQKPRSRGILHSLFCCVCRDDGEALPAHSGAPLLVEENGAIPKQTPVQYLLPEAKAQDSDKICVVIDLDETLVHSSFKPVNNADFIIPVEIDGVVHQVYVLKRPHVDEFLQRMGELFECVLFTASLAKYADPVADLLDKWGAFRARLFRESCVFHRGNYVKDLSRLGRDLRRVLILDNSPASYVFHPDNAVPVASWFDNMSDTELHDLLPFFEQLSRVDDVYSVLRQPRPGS
# [21] = target: T6, Short transient receptor potential channel 4 (Mus musculus, UniProt Q9QUQ5); assay: mouse TRPC4 channel activators, dose response, cell-based, HEK293 TRPC4/mu-opioid, Fluo-4 calcium (AID 434937); assay type: functional
# T6 sequence (Q9QUQ5 whole entry): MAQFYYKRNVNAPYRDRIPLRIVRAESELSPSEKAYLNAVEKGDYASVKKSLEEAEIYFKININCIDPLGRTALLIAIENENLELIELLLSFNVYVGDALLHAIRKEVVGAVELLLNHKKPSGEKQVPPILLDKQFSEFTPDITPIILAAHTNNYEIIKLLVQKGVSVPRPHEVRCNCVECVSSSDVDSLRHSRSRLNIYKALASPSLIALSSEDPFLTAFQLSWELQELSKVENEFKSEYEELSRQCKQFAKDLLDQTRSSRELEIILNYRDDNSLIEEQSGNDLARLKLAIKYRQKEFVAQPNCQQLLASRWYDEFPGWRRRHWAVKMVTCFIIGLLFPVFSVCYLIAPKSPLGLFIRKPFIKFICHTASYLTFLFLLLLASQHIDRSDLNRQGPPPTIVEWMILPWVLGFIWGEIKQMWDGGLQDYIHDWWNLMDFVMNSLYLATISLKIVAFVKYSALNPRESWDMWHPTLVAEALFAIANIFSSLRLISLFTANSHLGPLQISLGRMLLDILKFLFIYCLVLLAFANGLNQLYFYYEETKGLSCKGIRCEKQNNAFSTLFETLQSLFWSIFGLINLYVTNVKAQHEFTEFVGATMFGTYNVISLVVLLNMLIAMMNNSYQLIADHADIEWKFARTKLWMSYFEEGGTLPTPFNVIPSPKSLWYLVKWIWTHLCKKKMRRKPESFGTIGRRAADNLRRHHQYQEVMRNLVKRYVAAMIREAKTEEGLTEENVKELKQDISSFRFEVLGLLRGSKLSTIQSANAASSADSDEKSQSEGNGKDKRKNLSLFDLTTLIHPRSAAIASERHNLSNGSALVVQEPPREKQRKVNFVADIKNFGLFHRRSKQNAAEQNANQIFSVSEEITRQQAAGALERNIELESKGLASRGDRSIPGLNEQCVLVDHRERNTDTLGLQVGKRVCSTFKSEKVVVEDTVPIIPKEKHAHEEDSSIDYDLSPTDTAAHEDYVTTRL
# [22] = target: Beta-2 adrenergic receptor (Homo sapiens, UniProt P07550); assay: beta2AR agonists driving receptor internalization, dose response, cell-based, FAP fluorogen, flow cytometry, cherry pick 1 (AID 588763); assay type: functional
compound,measurement,setting,value
O=C(CCCN1C(=O)S/C(=C/c2ccccc2)C1=S)Nc1ccc(C(=O)O)cc1,IC50,[1],1.51 µM (active)
same,IC50,[2],1.45 µM (active)
same,IC50,Caspase-3,23.5 µM (active)
same,IC50,[3],21.3 µM (active)
same,IC50,[4],23.7 µM (active)
same,IC50,[5],29.8 µM (active)
same,IC50,[6],> 32 µM (inactive)
CCC(C)OC(=O)C[N+](C)(C)CCOC1CC2CCC1(C)C2(C)C (configuration not stated),EC50,[7],> 150 µM (inconclusive)
same,IC50,[8],418 nM (active)
same,IC50,[9],< 250 nM (active)
same,EC50,[10],4.36 µM (active)
same,EC50,[11],341 nM (active)
same,EC50,[12],> 60 µM (not active)
CCN(CC)c1ccc(N)cc1,CC50,[13],27.9 µM (active)
same,AC50,[14],6.78 µM (active)
same,IC50,[15],4.69 µM (active)
same,IC50,[16],> 100 µM (inactive)
same,IC50,Prothrombin,5.11 µM (active)
same,AC50,Cytochrome P450 3A4,25.1 µM (inconclusive)
same,AC50,[17],10 µM (inconclusive)
COc1ccc(-n2c3c(cc(C(=O)NNc4ccccc4C)c2=O)C(=O)CC(C)(C)C3)cc1,EC50,[18],> 92.5 µM (inactive)
same,EC50,Mu-type opioid receptor,14.5 µM (inactive)
same,EC50,[19],> 92.5 µM (inactive)
CCOc1ccc(C(O)Cn2c(=N)n(CCN3CCCCC3)c3ccccc32)cc1 (configuration not stated),IC50,[8],2550 nM (active)
same,IC50,[9],5180 nM (active)
Cc1cnc(C(=O)OCc2nc(O)c3sccc3n2)cn1,IC50,[20],7.9 µM (active)
CCC(C)(C)C(=O)O [DIMEBUTIC ACID],AC50,[17],12.6 µM (inconclusive)
OCC1(CC2CCCCO2)CCN(Cc2ccccc2-c2ccco2)CC1 (configuration not stated),EC50,[21],668 nM (active)
same,EC50,[18],> 92.4 µM (inactive)
same,EC50,Mu-type opioid receptor,> 92.4 µM (inactive)
same,EC50,[19],> 92.4 µM (inactive)
COc1ccc(CNC(=O)CCCCCNc2nc(S)nc3ccccc23)cc1,EC50,[22],25.5 nM (active)
